Laboratory results published in patent publication US5385842A, “Anthraquinones as inhibitors of sulfide production from sulfate-reducing bacteria” (E. I. Du Pont de Nemours and Company, priority 1993, dated 1995).

Key:
[1] = system: Desulfovibrio desulfuricans G100A; experiment: microbe, parasite or virus in culture; assay type: cell-based; conditions: Desulfovibrio desulfuricans, G100A, read-out: % Inhib. (inhibition of sulfide production)
D. desulfuricans G100A = experiment: Growth of D. desulfuricans G100A after addition of inhibitor at 12 h; assay type: cell-based
Description: Four 10 ml culture tubes of BTZ-3 medium as defined in Example 1 supplemented with sodium lactate (40 mM) and sodium sulfate (30 mM) and 0.5 ml of reducing agent were inoculated with 100 ul of a fully grown suspension of D. desulfuricans G100A. The culture was allowed to grow and the optical density at 660 nm was monitored until the cells entered into exponential growth (approx. 12-15 h, O.D. 660=0.1-0.2). At this time 100 ul of a 300 ppm solution of 1,8 dihydroxyanthraquinone, 1-chloranthraquinone or 3-chloro-2-anthraquinone carboxylic acid, respectively, was added to one of the tubes. The ethanol:water (80:20) solvent (100 μl ) was added to the fourth tube to serve as an uninhibited control.
#3 ppm inhibitor added at 12 hours

D. multispirans = experiment: Growth of different sulfate-reducers with 1,8-dihydroxyanthraquinone (Example 5); assay type: cell-based; conditions: 3 ppm, 40 hours; control >1.5
Description: (§1) Growth was monitored as optical density at 660 nm for 40 hours.

D. desulfuricans Norway = experiment: Growth of different sulfate-reducers with 1,8-dihydroxyanthraquinone (Example 7); assay type: cell-based; conditions: 3 ppm, 40 hours; control .30
Description: as §1

D. salexigens = experiment: Growth of different sulfate-reducers with 1,8-dihydroxyanthraquinone (Example 8); assay type: cell-based; conditions: 3 ppm, 40 hours; control >1.5
Description: as §1

[2] = system: D. desulfuricans #ATCC 27774; experiment: Growth of different sulfate-reducers with 1,8-dihydroxyanthraquinone (Example 9); assay type: cell-based; conditions: 3 ppm, 40 hours; control .45
Description: as §1

D. vulgaris = experiment: Growth of different sulfate-reducers with 1,8-dihydroxyanthraquinone (Example 10); assay type: cell-based; conditions: 3 ppm, 40 hours; control .20
Description: as §1

[3] = system: Escherichia coli strain MC106; experiment: Aerobic and anaerobic growth of Escherichia coli; assay type: cell-based; conditions: 5 ppm
Description: Another non-sulfate reducing organism, Escherichia coli strain MC106 was grown under aerobic conditions on BTZ-3 with 30 mM sodium succinate as sole carbon and electron source with oxygen as electron acceptor or under anaerobic conditions with hydrogen (80% as electron donor) and carbon dioxide (20%) as gas phase and sodium fumarate (30 mM) as electron acceptor. Both media contained 0.2% yeast extract.
Aerobic growth with succinate refers to growth on succinate as a carbon and electron source and oxygen as an electron acceptor. Anaerobic growth under hydrogen/carbon dioxide refers to growth with hydrogen as an electron donor and fumarate as an electron acceptor.

[4] = system: D. desulfuricans strain G100A; experiment: Growth by pyruvate fermentation in the absence of sulfate; assay type: cell-based
Description: D. desulfuricans strain G100A was grown using pyruvate fermentation in the absence of sulfate.

[5] = system: sulfate reducing bacteria (crude enrichments from various naturally-occuring environments); experiment: Sulfide production by crude enrichments from naturally-occurring environments; assay type: cell-based; conditions: 5 ppm
Description: All samples were grown on standard BTZ-3 medium (as defined in Example 1) under hydrogen (80%) carbon dioxide (20%) with 10 mM acetate and 0.1% yeast extract. Mud samples were inoculated into this medium and allowed to grow for 24 h to enrich for sulfate reducing bacteria. A 1 ml aliquot of this enrichment was transferred to fresh medium and the sulfide evolved was measured over a three day period. Sulfide was assayed as described by Siegal, Anal. Biochem. 11: 126-132, 1965, herein incorporated by reference.

[6] = system: B. aureus, B. subtilis, B. stearothermophilus and S. aureus; conditions: background art; cited from earlier work
[7] = system: D. desulfuricans #ATCC27774; experiment: Respiration rate (hydrogen gas uptake) with sulfate as electron acceptor; conditions: Desulfovibrio desulfuricans, ATCC27774, 4 h, pH 7, read-out: Gas Uptake (as percent of control)

In the case of `O=C1c2cccc(O)c2C(=O)c2c(O)cccc21` [1,8-Dihydroxyanthraquinone], the inhibition at 10 ppm [1] is reported as 82.2%, the “optical density reading at 660 nm” value (D. desulfuricans G100A; 0 h of growth, before addition of 3 ppm inhibitor at 12 h) is reported as “.01” and the “optical density reading at 660 nm” value (D. desulfuricans G100A; 10 h of growth, before addition of 3 ppm inhibitor at 12 h) is reported as “.12”. The “optical density reading at 660 nm” value (D. desulfuricans G100A; 12 h of growth, 3 ppm inhibitor added at 12 h) was “.20”, the “optical density reading at 660 nm” value (D. desulfuricans G100A; 14 h of growth, 3 ppm inhibitor added at 12 h) was “.19” and the “optical density reading at 660 nm” value (D. desulfuricans G100A; 18 h of growth, 3 ppm inhibitor added at 12 h) was “.16”. For the same molecule, the “optical density reading at 660 nm” value (D. desulfuricans G100A; 20 h of growth, 3 ppm inhibitor added at 12 h) was “.16”, the “optical density reading at 660 nm” value (D. desulfuricans G100A; 24 h of growth, 3 ppm inhibitor added at 12 h) was “.16” and the “optical density reading at 660 nm” value (D. desulfuricans G100A; 29 h of growth, 3 ppm inhibitor added at 12 h) was “.18”. For the same molecule, the “optical density reading at 660 nm” value (D. desulfuricans G100A; 34 h of growth, 3 ppm inhibitor added at 12 h) was “.18”, the “optical density reading at 660 nm” value (D. desulfuricans G100A; 62 h of growth, 3 ppm inhibitor added at 12 h) was “.30” and the “optical density reading at 660 nm” value (D. desulfuricans G100A; 92 h of growth, 3 ppm inhibitor added at 12 h) was “.28”. The “Optical Density @ 660 nm, treated” value (D. multispirans) was “.28”, the “Optical Density @ 660 nm, treated” value (D. desulfuricans Norway) was “.09” and the “Optical Density @ 660 nm, treated” value (D. salexigens) was “.06”. The “Optical Density @ 660 nm, treated” value [2] was “.08”, the “Optical Density @ 660 nm, treated” value (D. vulgaris) was “.05” and the “inhibition of aerobic or anaerobic growth (in words)” value [3] was “virtually no inhibition”. The “Optical Density @ 660 nm” value ([3]; aerobic growth with succinate, 0 h, control 0.01) was 0.01, the “Optical Density @ 660 nm” value ([3]; aerobic growth with succinate, 5.5 h, control 0.17) was 0.24 and the “Optical Density @ 660 nm” value ([3]; aerobic growth with succinate, 6.5 h, control 0.37) was 0.39. For the same molecule, the “Optical Density @ 660 nm” value ([3]; aerobic growth with succinate, 7.5 h, control 0.38) was 0.40, the “Optical Density @ 660 nm” value ([3]; aerobic growth with succinate, 24 h, control 1.50) was 1.50 and the “Optical Density @ 660 nm” value ([3]; anaerobic growth under hydrogen/carbon dioxide, 0 h, control 0.0) was 0.01. For the same molecule, the “Optical Density @ 660 nm” value ([3]; anaerobic growth under hydrogen/carbon dioxide, 3.5 h, control 0.30) was 0.29, the “Optical Density @ 660 nm” value ([3]; anaerobic growth under hydrogen/carbon dioxide, 4.5 h, control 0.45) was 0.62 and the “Optical Density @ 660 nm” value ([3]; anaerobic growth under hydrogen/carbon dioxide, 5.5 h, control 0.61) was 0.79. For the same molecule, the “Optical Density @ 660 nm” value ([3]; anaerobic growth under hydrogen/carbon dioxide, 6.0 h, control 0.75) was 0.87, the “Optical Density @ 660 nm” value ([4]; 0 h, before addition of 3 ppm at 6.5 h, control .11) was “.1” and the “effect on fermentative growth (in words)” value ([4]; 3 ppm) was “did not affect fermentative growth”. For the same molecule, the “Optical Density @ 660 nm” value ([4]; 2 h, before addition of 3 ppm at 6.5 h, control .12) was “.12”, the “Optical Density @ 660 nm” value ([4]; 3.5 h, before addition of 3 ppm at 6.5 h, control .14) was “.14” and the “Optical Density @ 660 nm” value ([4]; 6.5 h, time of addition of 3 ppm, control .15) was “.16”. The “Optical Density @ 660 nm” value ([4]; 8.5 h, 3 ppm added at 6.5 h, control .18) was “.16”, the “Optical Density @ 660 nm” value ([4]; 10.7 h, 3 ppm added at 6.5 h, control .19) was “.17” and the “Optical Density @ 660 nm” value ([4]; 25 h, 3 ppm added at 6.5 h, control .26) was “.22”. For the same molecule, the “Optical Density @ 660 nm” value ([4]; 32 h, 3 ppm added at 6.5 h, control .37) was “.34”, the “Optical Density @ 660 nm” value ([4]; 45 h, 3 ppm added at 6.5 h, control .46) was “.45” and the “inhibition of enrichments (in words)” value [5] was “the majority of enrichments from natural sources were inhibited”. For the same molecule, the “sulfide production, treated” value ([5]; SM-Lewes (Lewes saltmarsh), control 6.4) was 4.5 umol sulfide/day, the “sulfide production, treated” value ([5]; VF-A2 (Valley Garden Park, aerobic), control 64.0) was -11.0 umol sulfide/day and the “sulfide production, treated” value ([5]; VF-A (Valley Garden Park, aerobic), control 24.0) was -2.0 umol sulfide/day. For the same molecule, the “sulfide production, treated” value ([5]; VF-AN (Valley Garden Park, anaerobic), control 67.0) was 2.8 umol sulfide/day, the “sulfide production, treated” value ([5]; VS-A (Valley Stream State Park, aerobic), control 49.0) was -1.0 umol sulfide/day and the “sulfide production, treated” value ([5]; VS-AN2 (Valley Stream State Park, anaerobic), control 116.0) was 0.0 umol sulfide/day. The “sulfide production, treated” value ([5]; VS-AN (Valley Stream State Park, anaerobic), control 12.0) was -4.0 umol sulfide/day, the “sulfide production, treated” value ([5]; WADS (Wilmington anaerobic digestor), control 106.7) was 71.0 umol sulfide/day and the “sulfide production, treated” value ([5]; WCC-A1 (White Clay Creek Preserve, aerobic), control 411.0) was 67.0 umol sulfide/day. The “sulfide production, treated” value ([5]; WCC-A2 (White Clay Creek Preserve, aerobic), control 388.0) was 49.0 umol sulfide/day, the “sulfide production, treated” value ([5]; WCC-AN1 (White Clay Creek Preserve, anaerobic), control 345.0) was 80.0 umol sulfide/day and the “sulfide production, treated” value ([5]; WCC-AN2 (White Clay Creek Preserve, anaerobic), control 288.0) was 37.0 umol sulfide/day. For the same molecule, the “antibacterial activity (in words)” value [6] was “inactive”, the activity at 0.6 ppm [7] was 66% and the activity at 1.5 ppm [7] was 45%. For the same molecule, the activity at 3 ppm [7] was 30%.
